Test results reported in PubChem BioAssay AID1919009 (Molecular Pharmacology Branch, DTP, NCI, 2023).

Tested on: K24384-001-R-PDC complex spheroid growth
Test: Anticancer human tumor K24384-001-R-PDC patient-derived pancreatic adenocarcinoma cell line growth inhibition [AhR]
Details: for IC50: curve of first compound; for viability, T/C: stronger effect = lower value
Procedure, shortened: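 Spheroids combined tumor cells with HUVEC endothelial cells and human MSCs as stroma. AhR antagonists were paired with standard or investigational drugs, each dosed in half-log steps down from near clinical Cmax, or from 10 microM where Cmax was unknown.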

[1] = second compound 0.1 µM, first compound 0.0316 µM
[2] = second compound 0.1 µM, first compound 0.1 µM
[3] = second compound 0.1 µM, first compound 0.316 µM
[4] = second compound 0.1 µM, first compound 1 µM
[5] = second compound 0.1 µM, first compound 3.16 µM
[6] = second compound 0.1 µM, first compound 10 µM
[7] = second compound 0.316 µM, first compound 0.0316 µM
[8] = second compound 0.316 µM, first compound 0.1 µM
[9] = second compound 0.316 µM, first compound 0.316 µM
[10] = second compound 0.316 µM, first compound 1 µM
[11] = second compound 0.316 µM, first compound 3.16 µM
[12] = second compound 0.316 µM, first compound 10 µM
[13] = second compound 1 µM, first compound 0.0316 µM
[14] = second compound 1 µM, first compound 0.1 µM
[15] = second compound 1 µM, first compound 0.316 µM
[16] = second compound 1 µM, first compound 1 µM
[17] = second compound 1 µM, first compound 3.16 µM
[18] = second compound 1 µM, first compound 10 µM
[19] = second compound 3.16 µM, first compound 0.0316 µM
[20] = second compound 3.16 µM, first compound 0.1 µM
[21] = second compound 3.16 µM, first compound 0.316 µM
[22] = second compound 3.16 µM, first compound 1 µM
[23] = second compound 3.16 µM, first compound 3.16 µM
[24] = second compound 3.16 µM, first compound 10 µM
[25] = second compound 10 µM, first compound 0.0316 µM
[26] = second compound 10 µM, first compound 0.1 µM
[27] = second compound 10 µM, first compound 0.316 µM
[28] = second compound 10 µM, first compound 1 µM
[29] = second compound 10 µM, first compound 3.16 µM
[30] = second compound 10 µM, first compound 10 µM
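Wherever viability, T/C is given: percent of DMSO vehicle-treated spheroid viability set as 100%.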

IC50 (second compound 0.1 µM) [µM] | IC50 (second compound 0.316 µM) [µM] | IC50 (second compound 1 µM) [µM] | IC50 (second compound 3.16 µM) [µM] | IC50 (second compound 10 µM) [µM] | Compound | viability, T/C [1] [%] | viability, T/C [2] [%] | viability, T/C [3] [%] | viability, T/C [4] [%] | viability, T/C [5] [%] | viability, T/C [6] [%] | viability, T/C [7] [%] | viability, T/C [8] [%] | viability, T/C [9] [%] | viability, T/C [10] [%] | viability, T/C [11] [%] | viability, T/C [12] [%] | viability, T/C [13] [%] | viability, T/C [14] [%] | viability, T/C [15] [%] | other results
1.81 | 1.71 | 1.33 | 1.41 | 1.5 | Nc1ccccc1NC(=O)c1ccc(CNC(=O)OCc2cccnc2)cc1 + Cc1ccccc1N=Nc1ccc(NC(=O)c2ccnn2C)c(C)c1 | 100 | 93.9 | 83.2 | 63.6 | 37 | 7.04 | 105 | 104 | 78.2 | 68.7 | 32.3 | 6.55 | 95.1 | 94.7 | 67.9 | viability, T/C [16]: 60.2%; viability, T/C [17]: 30.4%; viability, T/C [18]: 5.37%; viability, T/C [19]: 85.9%; viability, T/C [20]: 78.3%; viability, T/C [21]: 80.6%; viability, T/C [22]: 52.9%; viability, T/C [23]: 34%; viability, T/C [24]: 4.36%; viability, T/C [25]: 81.8%; viability, T/C [26]: 84.1%; viability, T/C [27]: 80.4%; viability, T/C [28]: 54.5%; viability, T/C [29]: 35.2%; viability, T/C [30]: 6.31%
2.35 | 2.44 | 2.26 | 2.27 | 2.56 | O=C(C=Cc1cccc(S(=O)(=O)Nc2ccccc2)c1)NO + Cc1ccccc1N=Nc1ccc(NC(=O)c2ccnn2C)c(C)c1 | 137 | 128 | 126 | 92.2 | 35.2 | 6.57 | 135 | 144 | 121 | 107 | 32.6 | 6.91 | 136 | 135 | 126 | viability, T/C [16]: 87%; viability, T/C [17]: 35.1%; viability, T/C [18]: 6.47%; viability, T/C [19]: 102%; viability, T/C [20]: 127%; viability, T/C [21]: 123%; viability, T/C [22]: 86.5%; viability, T/C [23]: 35.9%; viability, T/C [24]: 5.9%; viability, T/C [25]: 128%; viability, T/C [26]: 128%; viability, T/C [27]: 115%; viability, T/C [28]: 89%; viability, T/C [29]: 41.1%; viability, T/C [30]: 7.02%
> 10 | > 10 | > 10 | > 10 | > 10 | O=C(c1cc(Cc2n[nH]c(=O)c3ccccc23)ccc1F)N1CCN(C(=O)C2CC2)CC1 + Cc1ccccc1N=Nc1ccc(NC(=O)c2ccnn2C)c(C)c1 | 86.1 | 94.5 | 99.4 | 83.3 | 75.8 | 79.2 | 99.9 | 97.2 | 79.4 | 86.2 | 85.8 | 58 | 89.9 | 109 | 77.4 | viability, T/C [16]: 81.1%; viability, T/C [17]: 66.2%; viability, T/C [18]: 63.2%; viability, T/C [19]: 75.9%; viability, T/C [20]: 80.6%; viability, T/C [21]: 83.2%; viability, T/C [22]: 72.4%; viability, T/C [23]: 60.3%; viability, T/C [24]: 51.6%; viability, T/C [25]: 101%; viability, T/C [26]: 84.1%; viability, T/C [27]: 95.1%; viability, T/C [28]: 72.9%; viability, T/C [29]: 65.2%; viability, T/C [30]: 65.8%
